Series [1] can be described thus: in vitro. The settings on record: rhesus monkey, liver microsomes. On the technique in general: Liver microsomes are vesicles of endoplasmic reticulum, rich in cytochrome P450 enzymes.
Series [2] is described as follows: in vitro. The settings on record: human, liver microsomes.
The nature of series [3]: Drug level in rhesus monkey plasma treated with 4-(8-((2,6-diethoxy-4'-fluorobiphenyl-4-yl)methyl)-3-oxo-2,8-diazaspiro[4.5]decan-2-yl)benzoic acid at 50 mg/kg, po qd for 5 days by HPLC analysis. The settings on record: in vivo, 120 h. The format is ADME, organism-based, Macaca mulatta.
Series [4] can be described thus: Drug metabolism in rhesus monkey plasma assessed as hydroxylation of benzoic acid at 50 mg/kg, po qd for 5 days by HPLC analysis. The format is ADME, organism-based, Macaca mulatta. The settings on record: in vivo, 120 h.
The nature of series [5]: Fraction unbound in high fat diet fed C57BL/6N mouse plasma at 3 mg/kg, po after 3 hrs. The format is ADME, organism-based. The settings on record: in vivo.
Series [6] in a line: Drug metabolism in rhesus monkey plasma assessed as oxidation of biphenyl ring at 50 mg/kg, po qd for 5 days by HPLC analysis. In kind it is ADME, organism-based, Macaca mulatta. As to conditions: in vivo, 120 h.
Series [7] is described as follows: Metabolic stability in Beagle dog liver microsomes at 1 uM after 30 mins. In kind it is ADME, Canis lupus familiaris, microsome. The settings on record: read-out: Stability.
The nature of series [8]: in vivo. As to conditions: Sprague-Dawley, rat.
The nature of series [9]: Drug metabolism in rhesus monkey plasma assessed as glucuronidation of carboxylic acid at 50 mg/kg, po qd for 5 days by HPLC analysis. The format is ADME, organism-based, Macaca mulatta. As to conditions: in vivo, 120 h.
Series [10] in a line: Drug metabolism in rhesus monkey plasma assessed as de-ethylation of ethoxyl group at 50 mg/kg, po qd for 5 days by HPLC analysis. The format is ADME, organism-based, Macaca mulatta. As to conditions: in vivo, 120 h.
Series [11] in a line: Metabolic stability in rat liver microsomes at 1 uM after 30 mins. In kind it is ADME, microsome. As to conditions: read-out: Stability.
Series [12] can be described thus: in vivo. As to conditions: rhesus monkey, po, 5 mg/kg.
The nature of series [13]: in vivo. The settings on record: rhesus monkey, plasma, po, 5 mg/kg.
Series [14] can be described thus: in vivo. The settings on record: Sprague-Dawley, rat, po, 2 mg/kg.
Series [15] is described as follows: in vivo. The settings on record: Sprague-Dawley, rat. The source holds these as a separate data set.
Series [16] is described as follows: in vivo. The settings on record: Sprague-Dawley, rat, iv, 1 mg/kg.
Series [17] in a line: in vivo. As to conditions: rhesus monkey, po, 5 mg/kg. The source holds these as a separate data set.

Consider `Cc1cc(-c2ccc(F)c(F)c2F)c(CN2CCC3(CC2)CC(=O)N(c2ccc(C(=O)O)cc2)C3)cc1C(F)(F)F`, for which the remaining at 0.5 h, 1 µM in the series “in vitro [1]” amounted to 94%; in the series “in vitro [2]”, 100%.
On to `CCOc1cc(CN2CCC3(CC2)CC(=O)N(c2ccc(C(=O)O[C@@H]4O[C@H](C(=O)O)[C@@H](O)[C@H](O)[C@H]4O)cc2)C3)cc(OCC)c1-c1ccc(F)cc1`, for which the Drug metabolism result in series [3] is given as “Metabolite_Detected”.
As to `Cc1cccc2c(CN3CCC4(CC3)CC(=O)N(c3ccc(C(=O)O)cc3)C4)cn(C(C)C)c12`, the remaining at 0.5 h, 1 µM was found to be 95% in the series “in vitro [1]” and 100% in the series “in vitro [2]”.
Turning to `CCOc1cc(CN2CCC3(CC2)CC(=O)N(c2ccc(C(=O)O)cc2)C3)cc(OCC)c1-c1ccc(F)cc1`, the Drug metabolism result in series [4], in [6], in series [9] and in [10] was “Metabolite_Detected” in each case. In addition, in series [5], the “Cp(f)” value came to 16 nM. Moreover, the remaining at 0.5 h, 1 µM was > 80% in series [7], 28% in the series “in vitro [1]”, 92% in “in vitro [2]” and > 80% in series [11]. Besides, in “in vivo [8]”, the AUC came out at 1.67 µM·h.
In “in vivo [12]”, `O=C(O)c1ccc(N2CC3(CCN(Cc4cc(C(F)(F)F)ccc4C4CC4)CC3)OC2=O)cc1` showed a Cmax of 2990 nM. The concentration at 24 h in the series “in vivo [13]” amounted to 470 nM. The bioavailability in “in vivo [14]” came to 85%. In the series “in vivo [15]”, the half-life is 1.6 h. In addition, the values for the remaining at 0.5 h, 1 µM in the series “in vitro [1]” and in the series “in vitro [2]” were 94% and 99%, respectively. Besides, the AUC in the series “in vivo [8]” stood at 8.5 µM·h; in “in vivo [17]” it was 31.2 µM·h. Also, the clearance in the series “in vivo [16]” came out at 3.4 mL/min/kg.

As usually defined, the AUC is the area under the concentration-time curve, a measure of exposure. The term Cmax denotes the peak of the concentration-time curve. What is called bioavailability is the share of a dose that reaches the circulation, judged against a reference dose that is usually intravenous. In general, half-life refers to the time needed for the level to fall by half in the phase considered. A word on the clearance: it is the rate of elimination divided by the concentration.

For the origin of these results see ChEMBL document CHEMBL4266057, “Optimization of Preclinical Metabolism for Somatostatin Receptor Subtype 5-Selective Antagonists” (ACS Med Chem Lett, 2018).
